In patent US12385900B2, “Method for evaluating cytotoxicity of gas” (DAIKIN INDUSTRIES, LTD., priority 2018, dated 2025):

Tests used:
heart = conditions: reported / known; cited from earlier work
[1] = system: Human iPS cell-derived cardiomyocytes (iCell cardiomyocytes^2, CDI); assay: Cytotoxicity evaluation test: number of beats of cardiomyocytes during gas flow onto the cell culture medium; format: cell-based
Experimental: Human iPS cell-derived cardiomyocytes (iCell cardiomyocytes^2, CDI) were seeded into a 96-well half-area plate at a density of 40,000 cells/well, followed by culture in an incubator for 7 to 10 days. Subsequently, a Ca indicator (EarlyTox Cardiotoxicity Kit, Molecular Devices) was added at 30 μL/well to the cardiomyocytes. Subsequently, chlorodifluoromethane (Example) or difluoromethane (Reference Example) was allowed to flow onto the surface of the cell culture medium in a closed vessel at a flow rate of 50 mL/min. During the flow, the cell culture medium was maintained at a pH of 7.4, a temperature of 37° C., and an air pressure in the incubator of 101.3 kPa. The number of beats of cardiomyocytes from the start of the flow to 10 minutes after the start of the flow was measured by a fluorescence measurement with a confocal quantitative image cytometer (CQ1, Yokogawa Electric Corporation).

Structure (SMILES)	effects on the heart (heart)	increase in the number of beats ([1]; 10 minutes after the start of the flow) [%]	Average number of beats (beats/30 sec) ([1]; exposure time 0 min (start of flow), gas flow 50 mL/min onto medium surface, pH 7.4, 37° C., 101.3 kPa)	Average number of beats (beats/30 sec) ([1]; exposure time 10 min, gas flow 50 mL/min onto medium surface, pH 7.4, 37° C., 101.3 kPa)	change in the number of beats of cardiomyocytes [1]	Average number of beats (beats/30 sec) ([1]; human, 0 min, pH 7.4)	Average number of beats (beats/30 sec) ([1]; human, 10 min, pH 7.4)
FC(F)Cl [chlorodifluoromethane]	has effects on the heart	74	14.5	25.3	–	–	–
FCF [difluoromethane]	no significant effects on the heart	–	–	–	almost no change	16.1	16.5
